pIC50: −log10 of the molar value. Where only a bound is given, the exact number is not on record here.

For experiment [1], the target named is GR complex. In words: [35S]TBPS binding assay (inhibition of [35S]TBPS binding, cerebral cortex P2 homogenate). On the set-up: species or system rat. The following applies: for pIC50: 2 nM [35S]TBPS, rat cerebral cortex P2 homogenate; for IMAX: maximum inhibition of [35S]TBPS binding. The gist of the method:
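Rat (male Sprague-Dawley) cortical P2 homogenate (0.5 mg protein) in 50 mM Na/K phosphate pH 7.4, 200 mM NaCl, incubated with 2 nM [35S]TBPS plus steroid test compounds (DMSO) in presence of GABA plus (+)bicuculline, 25°C, 90 min. Filtration, scintillation counting; nonspecific binding defined with […].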

The test system of experiment [2] is Bovine Uteral Progesterone Receptors. Nature of the experiment: Inhibition of 3H-progesterone binding, uterus cytosol. The following applies: competitor 10^-6M; 3H-progesterone 0.15 nM. The protocol:
The data presented were obtained by performing assays in accordance with the procedures described in et al. 1988 previously to determine the effect of progesterone metabolites and their derivatives and the progestin R5020 on the binding of [^3H]R5020 to the progesterone receptor in rat uterus (Gee et al. 1988).
^3H-progesterone (0.15 nM) was incubated with the rat uterus cytosol in the presence of the test compounds. The specific binding were determined after incubation and compared to the control incubation without the compounds. The data are expressed as percent inhibition of binding.
In Table 3, rats were adrenalectomized 3 days prior to sacrifice. To isolate the mineralocorticoid receptor, brain cytosol fractions were prepared as describe in Gee, et al. 1988. The drugs were incubated with 3 nM of ^3H-aldosterone (the specific ligand for the mineralocorticoid receptor) in the presence of the selective type II agonist RU28362 (0.5 µM) which blocks ^3H-aldosterone binding to the type II (glucocorticoid) receptors. Table 2. Inhibition of 3H-Progesterone Binding to the Bovine Uteral Progesterone Receptors

Experiment [3] concerns the target T1, Glucocorticoid Receptors (Rattus norvegicus, UniProt P06536).
T1 construct: from tissue; host or cells: rat brain cytosol
T1 sequence (P06536 1-795): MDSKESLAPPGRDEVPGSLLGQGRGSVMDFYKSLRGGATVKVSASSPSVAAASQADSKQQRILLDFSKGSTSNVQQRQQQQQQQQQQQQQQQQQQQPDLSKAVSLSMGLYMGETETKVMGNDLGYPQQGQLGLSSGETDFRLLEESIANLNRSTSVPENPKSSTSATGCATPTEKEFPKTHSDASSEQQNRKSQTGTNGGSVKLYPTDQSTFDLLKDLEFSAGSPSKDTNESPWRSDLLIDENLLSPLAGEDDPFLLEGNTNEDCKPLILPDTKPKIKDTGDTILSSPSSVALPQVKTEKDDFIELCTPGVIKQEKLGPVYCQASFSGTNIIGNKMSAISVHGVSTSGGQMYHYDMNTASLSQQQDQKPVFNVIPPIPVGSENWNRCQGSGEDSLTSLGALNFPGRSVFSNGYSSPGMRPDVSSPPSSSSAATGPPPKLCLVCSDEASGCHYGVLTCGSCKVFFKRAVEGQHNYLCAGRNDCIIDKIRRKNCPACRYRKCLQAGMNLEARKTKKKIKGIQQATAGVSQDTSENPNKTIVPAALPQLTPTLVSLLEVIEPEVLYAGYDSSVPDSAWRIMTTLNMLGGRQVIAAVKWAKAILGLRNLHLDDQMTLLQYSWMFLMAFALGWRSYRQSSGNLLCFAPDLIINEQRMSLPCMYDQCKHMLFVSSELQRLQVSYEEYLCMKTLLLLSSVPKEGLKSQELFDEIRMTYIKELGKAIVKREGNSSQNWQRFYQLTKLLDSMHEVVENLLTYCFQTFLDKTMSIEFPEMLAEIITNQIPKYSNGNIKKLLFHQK
Nature of the experiment: Inhibition of 3H-dexamethasone binding, brain cytosol. Also on record: species or system rats; dose or concentration left out as unconfirmed. The following applies: read-out: % of Inhibition. The protocol: Various hormonal activities of representative neuroactive steroids were further studied through testing their potential estrogenic, mineralocorticoid and glucocorticoid activities. These activities were analyzed by monitoring the ability of the compounds to inhibit binding of the steroid hormones to their respective hormone receptors.
For Table 4, brain cytosol fractions were prepared as for Table 3, and the compounds were incubated with 3 nM of ^3H-dexamethasone (the specific ligand for the glucocorticoid receptor).

The subject of experiment [4] is metrazol induced convulsions. In words: animal or person. Format: in vivo, mice. The following applies: Mus musculus; metrazol 85 mg/kg s.c., steroids i.p., mice.
For experiment [5], the system named is (+)bicuculline. In words: Anticonvulsant test against (+)bicuculline. Format: in vivo, mice. The following applies: Mus musculus, read-out: ED50 BIC. The method, then:
(§1) The anticonvulsant tests are similar to that described above. […] The number of animals with tonic and/or clonic convulsions was recorded. In the maximal electroshock test, 50 mA of current at 60 Hz was delivered through corneal electrodes for 200 msec to induce tonic seizure. The ability of compounds to abolish the tonic component was defined as the endpoint. General CNS depression potential was determined by a rotorod test 10 minutes after the injection of compounds where the number of mice staying on a rotating (6 rpm) rod for 1 minute in one of the three trials was determined. […] Table 7. Anticonvulsant Activity of Exemplified Neuroactive Steroids and those of Selected Clinically Useful Anticonvulsants in Mice

The test system of experiment [6] is strychnine. Nature of the experiment: Anticonvulsant test against strychnine. The experiment is classed as in vivo, mice. The note with it: Mus musculus, read-out: ED50 STR. The protocol: as §1

In turn, `CC(=O)[C@H]1CC[C@H]2[C@@H]3CC[C@H]4C[C@H](O)CC[C@]4(C)[C@H]3CC[C@]12C` [3α-Hydroxy-5α-pregnan-20-one, 3α-hydroxy-5α-pregnan-20-one] showed a pIC50 in experiment [1] of 7.43. In experiment [1], this compound showed an IMAX of 95%. The “% of Inhibition” value in experiment [2] is on record as 14%. Besides, the inhibition in experiment [3] worked out at 8.7%. Besides, the ED50 is 4.9 mg/kg in experiment [4], 12.3 mg/kg in experiment [5] and greater than 300 mg/kg in experiment [6].

The compound `C[C@]12CC[C@@H](O)C[C@@H]1CC[C@@H]1[C@@H]2CC[C@]2(C)[C@@H](C(=O)CO)CC[C@@H]12` [3α,21-dihydroxy-5α-pregnan-20-one] showed a pIC50 in experiment [1] of 7.12. In experiment [1], this compound gave an IMAX of 100%. The “% of Inhibition” value in experiment [2] stood at 13%. Also, the inhibition in experiment [3] was 29.5%. The ED50 in experiment [4] was 8.1 mg/kg; in experiment [5] it was 17.8 mg/kg; in experiment [6], greater than 300 mg/kg.

(Values after patent publication EP1038880B1, “Androstanes and pregnanes for allosteric modulation of GABA receptor” (priority 1994, dated 1995).)
